In general, melting point refers to the temperature, or range, at which the solid turns liquid.

Among the data in a melting point compilation (Tetko et al.; mined from patent text by program, amines drawn as free bases though some values may be those of a salt) are melting point values, retold here.

SMILES strings stand for the structures.

The compound `CCOC(=O)c1ccc(C(=O)NNC(=O)c2ccc(C(=O)OCC)cc2)cc1` yielded a melting point of 191 to 195 °C.

With `O=C(O)c1ccc(-c2ccccc2OC2OC(CO)C(O)C(O)C2O)cc1` (configuration not stated), the melting point lay within 248 to 249 °C.

Turning to `O=C(NCCc1cccc2ccc(O)cc12)C1CC1`, the melting point was 140 to 141 °C.

Consider `NC(=O)OCC(O)Cn1oc2ccc(Cl)cc2c1=O` (configuration not stated), for which the melting point fell in the range of 161 to 162 °C.

For the compound `CCCc1nnc(-c2ccc(N(C)C)cc2)n1-c1ccc(OC)cc1`, the melting point stood at 160 °C.

Compound `CCCCc1nc(Cl)c(CNC(=O)c2cc3c(OCC(O)CN(C(=O)OC(C)(C)C)C(C)C)cccc3[nH]2)n1Cc1ccc(-c2ccccc2C(=O)OC)cc1` (configuration not stated) gave a melting point of 158 to 160 °C.

For `CCOC(=O)c1conc1-c1ccc(F)c(Br)c1`, the melting point fell in the range of 96 to 97 °C.

For `Nc1nc(-c2cc(Cl)ccc2Cl)nc(N2CCC(=O)CC2)n1`, the melting point lay in the range of 223 to 225 °C.

Turning to `O=Nc1c(-c2ccccc2)nc2ccccn12`, the melting point is 165 to 167 °C.

Compound `CS(=O)(=O)N1CCN(C(=O)Cl)C1=O` had a melting point of 178 °C.

`CCc1ccc(-c2nc3ccccc3[nH]2)nc1` registered a melting point of 172 to 173 °C.

Compound `O=C(O)Cc1nn(Cc2nc3cc(F)cc(F)c3s2)c(=O)c2ccccc12` gave a melting point of 178 °C.

Consider `COC1(c2ccc(C(C)C)cc2O)C(=O)c2ccccc2C1=O`, for which the melting point was 272 to 274 °C.

`COC(=O)Cc1c(O)c(C)nn1C` had a melting point of 119 to 120 °C.

Compound `COc1ccc(CCc2nc(Br)c(C(F)(F)F)[nH]2)cc1` yielded a melting point of 104 to 106 °C.

The compound `COc1ccc(C(O)c2cccnc2)cn1` (configuration not stated) had a melting point of 129 to 130 °C.

In turn, `COc1cc(CCI)cc(OC)c1` gave a melting point of 30 to 33 °C.

`CC(C#N)(Cn1c(C(F)(F)F)nc2ccccc21)NC(=O)c1ccc(OC(F)(F)F)cc1` (configuration not stated): the melting point is 194 °C.

For `CC(C)(C)NC(=O)c1ccc(Br)cc1`, the melting point was 126 to 128 °C.

`O=C(O)COc1cc(Cl)ccc1C(=O)NCc1nc2cc(C(F)(F)F)ccc2s1` showed a melting point of 225 to 227 °C.

In turn, `CCCn1c(=O)c2[nH]c(-c3ccc4c(c3)OCCO4)nc2n(Cc2ccccc2)c1=O` returned a melting point of 290 °C.

As for `NC(=O)NS(=O)(=O)c1ccccc1Cl`, the melting point fell in the range of 160 to 163 °C.

The compound `Cc1ccc(C(=O)c2c(N)cc(C(=O)O)cc2OCc2ccccc2)cc1` registered a melting point of 182 to 184 °C.

For the compound `CCC(Oc1ccccc1F)C(=O)OC1CC(O)C=C2C=CC(C)C(CCC3CC(O)CC(=O)O3)C21` (mixture of isomers), the melting point was 136 to 138 °C.

On to `O=C(NC1CC1)c1ccccc1SSc1ccccc1C(=O)NC1CC1`, for which the melting point is 257 to 259 °C.

As to `CCNC(=O)Oc1ccc(-c2nn(C3CCCC3)c3c(F)cccc23)cc1`, the melting point was 159 to 160 °C.

The compound `CS(=O)(=O)c1ccc(C2=C(c3ccccc3)C(=O)C3(CCCC3)O2)cc1` yielded a melting point of 184 to 185 °C.

`CC(=O)Oc1cc(C(C)C)ccc1C1(OC(C)=O)C(=O)c2cccc(N)c2C1=O` (configuration not stated) yielded a melting point of 148 to 151 °C.

Regarding `CCCCCOc1cc(C=CC(=O)O)ccc1OC`, the melting point stood at 150 °C.

For `COC(=O)C1=Cc2cc(Br)ccc2N(C)CCC1`, the melting point was 88 to 89 °C.

As for `COc1ccc2c(c1)cc(C(=O)O)n2C(C)=O`, the melting point fell in the range of 173 to 175 °C.

For `Cc1c(Cl)c(C=O)c(C)c2c1CC(C)(C)C2`, the melting point came out at 127 °C.

For the compound `Cc1ccc(Oc2ccc(C#N)cc2)c(O)c1`, the melting point was 118 to 119 °C.

For `O=C(CCOc1cccc(-c2ccccc2)c1)NO`, the melting point lay within 113 to 116 °C.

`CN1C(=O)C(C)(C)C(=O)N(C)c2cc(Br)ccc21` had a melting point of 194 to 195 °C.

Take `CCCCCc1ccc(CCC2CCC(C#N)CC2)cc1` (configuration not stated): the melting point is 22.4 °C.

For `C=Cc1c(F)c(F)cc2c(=O)c(C(=O)O)cn(C3CC3)c12`, the melting point fell in the range of 183 to 188 °C.

As to `CC(C)(C)OC(=O)CCNC(=O)c1ccc2c(Cl)cnc(Cl)c2c1`, the melting point fell in the range of 131 to 133 °C.

`O=C1CCC(Cc2ccc(Cl)cc2)CN1` (configuration not stated) returned a melting point of 118 to 120 °C.

`O=C1OC(O)c2ccc([N+](=O)[O-])cc21` (configuration not stated) came in with a melting point of 157 to 160 °C.

The compound `COCCOc1c(C(=O)CC(=O)C(=O)O)ccc(Cc2ccccc2)c1OC` came in with a melting point of 83 to 85 °C.

In turn, `CCOC(=O)N1CCN(c2cc3nc(C(C)(C)C)sc3cc2N=C=S)CC1` showed a melting point of 131 to 134 °C.

Compound `CCCN(c1ccncc1)n1cc(C)c2cc(OCc3ccccc3)ccc21` registered a melting point of 165 to 167 °C.

Consider `Cc1cn(-c2cc(C)c(N)c(Br)c2)c(C)n1`, for which the melting point fell in the range of 176 to 180 °C.

In the case of `N#Cc1cccc(C2=Nc3cc(O)c(-c4ccccc4F)cc3NC(=O)C2)c1`, the melting point is greater than 250 °C.

Take `Cc1nn(C2CCCC2O)c(N)c1C#N` (configuration not stated): the melting point is 157 to 159 °C.

In turn, `CC(C#N)=CCN1C(=O)c2ccccc2S1(=O)=O` had a melting point of 107 to 108 °C.

`O=C(NS(=O)(=O)c1c(F)cccc1F)N1CCC=N1` returned a melting point of 183 °C.

Compound `COc1ccc2c3c1OC1C(O)C(CO)(CO)CC4C(C2)N(C)CCC341` (configuration not stated) gave a melting point greater than 265 °C.

As for `COc1ccc2c3c(c(=O)oc2c1)CN(Cc1cc(OC)c(OC)c(OC)c1)CC3`, the melting point fell in the range of 171 to 173 °C.

With `CCCCN(Cc1ccc(-c2ccccc2-c2nc(=O)o[nH]2)cc1)c1ncccc1C(=O)O`, the melting point lay within 95 to 98 °C.

For the compound `CC1(Cl)C=CC2=C(c3cccc(CCCC(=O)O)c3)C(CC(=O)Nc3ccc(F)cc3C(F)(F)F)C(=O)OC2=C1` (configuration not stated), the melting point is 196 °C.

`Cc1cc(-c2cc(O)c(Cl)cc2F)c(=O)n(C)c1C(F)(F)F` showed a melting point of 207 to 208 °C.

Compound `CC1(C)Oc2cc(Br)c(Br)cc2O1` returned a melting point of 93 to 94 °C.

Compound `O=C(OCc1ccccc1)[C@H](O)CCc1ccccc1` yielded a melting point of 59 to 60 °C.

The compound `CC1=C(C(=O)OCC2CC2)C(c2ccccc2C(F)(F)F)c2c(ccnc2OC(C)C)N1` (configuration not stated) gave a melting point of 112 to 114 °C.

Take `CC(=O)Nc1cc(C(F)(F)F)ccc1N1CCc2ccccc21`: the melting point lay within 153 to 155 °C.

The compound `O=S(=O)(c1ccc(-n2cccn2)cc1)N1CCC(CNCC(O)COc2ccc(O)cc2)CC1` (configuration not stated) had a melting point of 169 to 171 °C.

`CN1C(=O)c2ccc(-c3ccc(Cl)cc3)cc2C1=O` returned a melting point of 131 to 132 °C.

`NS(=O)(=O)c1ccc(N2CCN(CCC3C=Cc4ccccc43)CC2)cc1` (configuration not stated) showed a melting point of 181 °C.

The compound `O=C(NC(=S)NC1CCN(Cc2ccc3ccccc3c2)CC1)c1ccccc1` gave a melting point of 212 to 214 °C.

`CN(C(=S)c1ccc2nonc2c1)C1CCOCC1` came in with a melting point of 174 to 175 °C.

The compound `CSc1ccc(C(=O)CC(=O)C(F)F)cc1` registered a melting point of 68 to 70 °C.

The compound `COc1ccnc(C(C)Sc2nc3cc(OC(F)F)c(OC)cc3[nH]2)c1` (configuration not stated) came in with a melting point of 128 to 131 °C.

The compound `CCOC(=O)/C=C/c1cc(-c2ccc(C)cc2)n(-c2ccc(S(N)(=O)=O)cc2)n1` came in with a melting point of 167 to 171 °C.

In turn, `CC1(C)CCC(C)(C)c2cc(-c3cc(-c4ccc(C(=O)O)cc4)ccc3OCCCCN)ccc21` yielded a melting point of 250 °C.

Turning to `Fc1cc(F)c2c(c1)C[C@@H](n1c(CN3CCOCC3)c[nH]c1=S)CC2`, the melting point lay within 182 to 184 °C.

In turn, `COc1cc(CCl)ccc1OCc1nc(-c2cccc(OS(C)(=O)=O)c2)oc1C` registered a melting point of 112 to 114 °C.

As to `Clc1ccccc1-c1n[nH]cc1Br`, the melting point amounted to 80 °C.

In turn, `O=C(O)CC1(S)C2CC3CC(C2)CC1C3` (configuration not stated) yielded a melting point of 178 to 180 °C.

Consider `O=Cc1c[nH]c2ccc3c(c12)CC(O)CO3` (configuration not stated), for which the melting point is 158 to 162 °C.

Compound `NC(=O)c1cc([N+](=O)[O-])c(Oc2ccccc2)c(S(N)(=O)=O)c1` gave a melting point of 255 to 256 °C.

As to `Cc1cc(C(=O)N2Cc3ccc(C(=O)N4CCN(C)CC4)n3Cc3ccccc32)ccc1C1=CCCc2ccccc21`, the melting point came to 108 °C.

Consider `CS(=O)(=O)c1ccc(-c2sc(-c3ccncc3)nc2-c2ccc(F)cc2)cc1`, for which the melting point was 171 to 176 °C.

Turning to `Cc1ccc(CO)nc1-c1ccccn1`, the melting point was 51 to 53 °C.

With `CCNC(=O)c1ccc(Nc2nc(OCC3CCCCC3)c3nc[nH]c3n2)cc1`, the melting point fell in the range of 156 to 158 °C.

For `OC1CSC(Oc2cccc3ccoc23)C(O)C1O` (configuration not stated), the melting point was determined as 160 °C.

Turning to `CCCc1nc(SC(F)F)c(C(=O)O)n1Cc1ccc(-c2ccccc2S(=O)(=O)NC(=O)NCCC2=CCCCC2)cc1`, the melting point was 114 °C.

The compound `c1ccc2c(N3CCNCC3)nccc2c1` had a melting point of 54 to 56 °C.

As to `Cc1nc(-n2ccc(OCc3ccccc3)cc2=O)sc1C(=O)NCc1ccc(F)c(F)c1`, the melting point fell in the range of 225 to 227 °C.

Regarding `CS(=O)c1ccc(C2=C(c3cccc(F)c3)C(=O)C(C)(C)O2)cc1` (configuration not stated), the melting point lay in the range of 143 to 144 °C.

As for `CNC(=O)n1nc(Oc2ccc([N+](=O)[O-])cc2C(F)(F)F)cc1C`, the melting point was in the range of 142 to 144 °C.

`CCCCCCCCc1ccc(NC(=O)Nc2ccc(S(N)(=O)=O)cc2)cc1` had a melting point of 282 to 283 °C.

`O=S1(=O)c2cccc3cccc(c23)N1CCN1CC=C(Cc2c[nH]c3ccc(F)cc23)CC1` displayed a melting point of 128 °C.

Compound `CCCCCCCNC(=S)N(C)c1cccc(-c2ccc(CCC(=O)O)cc2)c1` showed a melting point of 95 to 96 °C.

`Cc1ccc([N+](=O)[O-])c(C)c1C1OCCO1` returned a melting point of 69 to 71 °C.

The compound `CC[C@@H](NC(=O)CCCCl)C(N)=O` had a melting point of 118 to 123 °C.

`CCCCCCCCCCCCCCOc1ccc(CNC(C)=O)cc1`: the melting point was 100 to 101 °C.

Compound `CSc1ccc(-c2coc3ccc(-c4nnc(C)o4)cc23)c(Cl)c1` gave a melting point of 153 to 154 °C.

For `ON=C1OC2C=CC1CC2` (configuration not stated), the melting point lay in the range of 153 to 154 °C.

Consider `COc1ccc2[nH]c(SCc3ncc(C)c(N4CCOCC4)c3Cl)nc2c1`, for which the melting point was 162 to 164 °C.

Compound `O=C1c2cc(Cl)ccc2CC1Br` (configuration not stated) came in with a melting point of 84 to 87 °C.
